Data: patent US11076594B2, “Pyrazolone compound or salt thereof, preparation method therefor, herbicide composition and use thereof” (QINGDAO KINGAGROOT CHEMICAL COMPOUNDS CO., LTD., priority 2015, dated 2021)
Each block holds one molecule with its values, some of them ahead of it.

Legend:
Format in all cases: in vivo
rice (japonica rice) = assay: transplanted rice safety evaluation; details: 125 g/ha ai; treated 5 days after transplantation; 21 days after treatment
Procedure: The activity level standard of harmful plant destruction (i.e. growth control rate) is as follows: In addition, the rice field soil that loaded into the 1/1,000,000 ha pot was leveled to keep water storage at 3-4 cm depth. The 3 leaf stage rice (japonica rice) was transplanted at 3 cm of transplanting depth the next day. The compound of the present invention was treated by the same way after 5 days of transplantation. The fertility condition of echinochloa, scirpus juncoides, bidens tripartite and sagittaria trifolia 14 days after the treatment of the compound of the invention and the fertility condition of rice 21 days after the treatment of the compound of the invention respectively with the naked eye.

sagittaria trifolia = assay: weed control effect evaluation in rice field; parameters: key: Level 10: completely dead; Level 9: above 95% growth control rate; Level 8: above 90% growth control rate; Level 7: above 80% growth control rate; Level 6: above 70% growth control rate; Level 5: above 60% growth control rate; Level 4: above 50% growth control rate; Level 3: above 20% growth control rate; Level 2: 5%-20% growth control rate; Level 1: below 5% growth control rate; details: 125 g/ha ai; rice field pot; 14 days after treatment; resistant to pyrazosulfuron-ethyl
Description: (§1) The activity level standard of harmful plant destruction (i.e. growth control rate) is as follows: Rice field soil was loaded into a 1/1,000,000 ha pot. The seeds of echinochloa, scirpus juncoides, bidens tripartite and sagittaria trifolia were sowed and gently covered with soil, then left to stand still in greenhouse in the state of 0.5-1 cm of water storage. The tuber of sagittaria trifolia was planted in the next day or 2 days later. It was kept at 3-4 cm of water storage thereafter. The weeds were treated by dripping the WP or SC water diluents prepared according to the common preparation method of the compounds of the present invention with pipette homogeneously to achieve specified effective amount when echinochloa, scirpus juncoides and bidens tripartite reached 0.5 leaf stage and sagittaria trifolia reached the time point of primary leaf stage. The fertility condition of echinochloa, scirpus juncoides, bidens tripartite and sagittaria trifolia 14 days after the treatment of the compound of the invention and the fertility condition of rice 21 days after the treatment of the compound of the invention respectively with the naked eye.

scirpus juncoides = assay: weed control effect evaluation in rice field; parameters: key: Level 10: completely dead; Level 9: above 95% growth control rate; Level 8: above 90% growth control rate; Level 7: above 80% growth control rate; Level 6: above 70% growth control rate; Level 5: above 60% growth control rate; Level 4: above 50% growth control rate; Level 3: above 20% growth control rate; Level 2: 5%-20% growth control rate; Level 1: below 5% growth control rate; details: 125 g/ha ai; rice field pot; 14 days after treatment; resistant to pyrazosulfuron-ethyl
Description: as §1

echinochloa [1] = assay: weed control effect evaluation in rice field; parameters: key: Level 10: completely dead; Level 9: above 95% growth control rate; Level 8: above 90% growth control rate; Level 7: above 80% growth control rate; Level 6: above 70% growth control rate; Level 5: above 60% growth control rate; Level 4: above 50% growth control rate; Level 3: above 20% growth control rate; Level 2: 5%-20% growth control rate; Level 1: below 5% growth control rate; details: 125 g/ha ai; rice field pot; 14 days after treatment; resistant to pyrazosulfuron-ethyl
Description: as §1

bidens tripartite = assay: weed control effect evaluation in rice field; parameters: key: Level 10: completely dead; Level 9: above 95% growth control rate; Level 8: above 90% growth control rate; Level 7: above 80% growth control rate; Level 6: above 70% growth control rate; Level 5: above 60% growth control rate; Level 4: above 50% growth control rate; Level 3: above 20% growth control rate; Level 2: 5%-20% growth control rate; Level 1: below 5% growth control rate; details: 125 g/ha ai; rice field pot; 14 days after treatment; resistant to pyrazosulfuron-ethyl
Description: as §1

foxtail = assay: weed control effect in post-emergence stage (Table 1); parameters: key: Level 10: completely dead; Level 9: above 95% growth control rate; Level 8: above 90% growth control rate; Level 7: above 80% growth control rate; Level 6: above 70% growth control rate; Level 5: above 60% growth control rate; Level 4: above 50% growth control rate; Level 3: above 20% growth control rate; Level 2: 5%-20% growth control rate; Level 1: below 5% growth control rate; details: post-emergence spray at 4-5 leaf stage, 250 g/ha active ingredient with 450 kg/ha water, rated after 3 weeks in greenhouse
Summary of the method: (§2)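 Greenhouse pot test; foliar spray at 4-5 leaf stage; acetone + Tween 80 + water formulation; 3 wk post-treatment fresh-weight control rate.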

Indian mallow = assay: as above; parameters: key: Level 10: completely dead; Level 9: above 95% growth control rate; Level 8: above 90% growth control rate; Level 7: above 80% growth control rate; Level 6: above 70% growth control rate; Level 5: above 60% growth control rate; Level 4: above 50% growth control rate; Level 3: above 20% growth control rate; Level 2: 5%-20% growth control rate; Level 1: below 5% growth control rate; details: post-emergence spray at 4-5 leaf stage, 250 g/ha active ingredient with 450 kg/ha water, rated after 3 weeks in greenhouse
Summary of the method: as §2

bidens bipinnata = assay: as above; parameters: key: Level 10: completely dead; Level 9: above 95% growth control rate; Level 8: above 90% growth control rate; Level 7: above 80% growth control rate; Level 6: above 70% growth control rate; Level 5: above 60% growth control rate; Level 4: above 50% growth control rate; Level 3: above 20% growth control rate; Level 2: 5%-20% growth control rate; Level 1: below 5% growth control rate; details: post-emergence spray at 4-5 leaf stage, 250 g/ha active ingredient with 450 kg/ha water, rated after 3 weeks in greenhouse
Summary of the method: as §2

crab grass = assay: as above; parameters: key: Level 10: completely dead; Level 9: above 95% growth control rate; Level 8: above 90% growth control rate; Level 7: above 80% growth control rate; Level 6: above 70% growth control rate; Level 5: above 60% growth control rate; Level 4: above 50% growth control rate; Level 3: above 20% growth control rate; Level 2: 5%-20% growth control rate; Level 1: below 5% growth control rate; details: post-emergence spray at 4-5 leaf stage, 250 g/ha active ingredient with 450 kg/ha water, rated after 3 weeks in greenhouse
Summary of the method: as §2

rorippa indica = assay: as above; parameters: key: Level 10: completely dead; Level 9: above 95% growth control rate; Level 8: above 90% growth control rate; Level 7: above 80% growth control rate; Level 6: above 70% growth control rate; Level 5: above 60% growth control rate; Level 4: above 50% growth control rate; Level 3: above 20% growth control rate; Level 2: 5%-20% growth control rate; Level 1: below 5% growth control rate; details: post-emergence spray at 4-5 leaf stage, 250 g/ha active ingredient with 450 kg/ha water, rated after 3 weeks in greenhouse
Summary of the method: as §2

echinochloa [2] = assay: as above; parameters: key: Level 10: completely dead; Level 9: above 95% growth control rate; Level 8: above 90% growth control rate; Level 7: above 80% growth control rate; Level 6: above 70% growth control rate; Level 5: above 60% growth control rate; Level 4: above 50% growth control rate; Level 3: above 20% growth control rate; Level 2: 5%-20% growth control rate; Level 1: below 5% growth control rate; details: post-emergence spray at 4-5 leaf stage, 250 g/ha active ingredient with 450 kg/ha water, rated after 3 weeks in greenhouse
Summary of the method: as §2

rice = assay: post-emergence stage experiment, crop (Table 1); details: post-emergence spray at 4-5 leaf stage, 250 g/ha active ingredient with 450 kg/ha water, rated after 3 weeks in greenhouse
Summary of the method: as §2

wheat [3] = assay: post-emergence stage experiment, crop (Table 1); details: post-emergence spray at 4-5 leaf stage, 250 g/ha active ingredient with 450 kg/ha water, rated after 3 weeks in greenhouse
Summary of the method: as §2

shepherd's purse = assay: wheat field resistant broadleaf weed control, greenhouse spray at 4 leaf stage; parameters: key: Level 10: completely dead; Level 9: above 95% growth control rate; Level 8: above 90% growth control rate; Level 7: above 80% growth control rate; Level 6: above 70% growth control rate; Level 5: above 60% growth control rate; Level 4: above 50% growth control rate; Level 3: above 20% growth control rate; Level 2: 5%-20% growth control rate; Level 1: below 5% growth control rate; details: 250 g/ha of the active substance; 4 weeks after treatment; ALS inhibitor resistant
Summary of the method: (§3)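 Greenhouse post-emergence test. Weeds were treated at the 4 leaf stage, 2-3 weeks after sowing, and cultured for 4 weeks before fresh weight control rate was determined.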

corn gromwell = assay: as above; parameters: key: Level 10: completely dead; Level 9: above 95% growth control rate; Level 8: above 90% growth control rate; Level 7: above 80% growth control rate; Level 6: above 70% growth control rate; Level 5: above 60% growth control rate; Level 4: above 50% growth control rate; Level 3: above 20% growth control rate; Level 2: 5%-20% growth control rate; Level 1: below 5% growth control rate; details: 250 g/ha of the active substance; 4 weeks after treatment; ALS inhibitor resistant
Summary of the method: as §3

flixweed = assay: as above; parameters: key: Level 10: completely dead; Level 9: above 95% growth control rate; Level 8: above 90% growth control rate; Level 7: above 80% growth control rate; Level 6: above 70% growth control rate; Level 5: above 60% growth control rate; Level 4: above 50% growth control rate; Level 3: above 20% growth control rate; Level 2: 5%-20% growth control rate; Level 1: below 5% growth control rate; details: 250 g/ha of the active substance; 4 weeks after treatment; ALS inhibitor resistant
Summary of the method: as §3

chickweed = assay: as above; parameters: key: Level 10: completely dead; Level 9: above 95% growth control rate; Level 8: above 90% growth control rate; Level 7: above 80% growth control rate; Level 6: above 70% growth control rate; Level 5: above 60% growth control rate; Level 4: above 50% growth control rate; Level 3: above 20% growth control rate; Level 2: 5%-20% growth control rate; Level 1: below 5% growth control rate; details: 250 g/ha of the active substance; 4 weeks after treatment; ALS inhibitor resistant
Summary of the method: as §3

wheat [4] = assay: wheat field test, crop selectivity, greenhouse spray at 4 leaf stage; details: 4 weeks after treatment
Summary of the method: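 Compounds in acetone were mixed with methyl oleate emulsion, diluted with water and applied with a sprayer to greenhouse plants at the 4 leaf stage. Growth control, expressed as fresh weight control rate, was assessed after 4 weeks of further culture.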

alopecurus japonicas = assay: wheat field resistant weed control, greenhouse spray at 4 leaf stage; parameters: key: Level 10: completely dead; Level 9: above 95% growth control rate; Level 8: above 90% growth control rate; Level 7: above 80% growth control rate; Level 6: above 70% growth control rate; Level 5: above 60% growth control rate; Level 4: above 50% growth control rate; Level 3: above 20% growth control rate; Level 2: 5%-20% growth control rate; Level 1: below 5% growth control rate; details: sprayed at 4 leaf stage, 4 weeks after treatment, resistant to ALS and ACCase inhibitor herbicides
Summary of the method: as §3

corn = assay: post-emergence stage experiment, crop (Table 1); details: post-emergence spray at 4-5 leaf stage, 250 g/ha active ingredient with 450 kg/ha water, rated after 3 weeks in greenhouse
Summary of the method: as §2

- effect on crop, Wheat (level) (wheat [3]): 0
SMILES: Cc1nn(C)c(O)c1C(=O)c1ccc(C(F)(F)F)c(N)c1Cl [Compound 001]
- Rice (activity level, transplanted rice safety) (rice (japonica rice)): 0
- Sagittaria trifolia weed control effect (activity level) (sagittaria trifolia): 9 (Level 9: above 95% growth control rate)
- Scirpus juncoides weed control effect (activity level) (scirpus juncoides): 10
- Echinochloa weed control effect (activity level) (echinochloa [1]): 10
- Bidens tripartite weed control effect (activity level) (bidens tripartite): 8 (Level 8: above 90% growth control rate)
- weed control effect, Green foxtail (level) (foxtail): 6 (Level 6: above 70% growth control rate)
- weed control effect, Indian mallow (level) (Indian mallow): 9 (Level 9: above 95% growth control rate)
- weed control effect, Bidens bipinnata (level) (bidens bipinnata): 8 (Level 8: above 90% growth control rate)
- weed control effect, Crab grass (level) (crab grass): 1 (Level 1: below 5% growth control rate)
- weed control effect, Rorippa indica (level) (rorippa indica): 9 (Level 9: above 95% growth control rate)
- weed control effect, Echinochloa (level) (echinochloa [2]): 6 (Level 6: above 70% growth control rate)
- effect on crop, Rice (level) (rice): 4 (Level 4: above 50% growth control rate)

SMILES: CCOc1c(C(=O)Oc2c(C(=O)c3ccc(C(F)(F)F)c(N4CCCCC4=O)c3Cl)c(C3CC3)nn2C)cnn1C [Compound 048]
- shepherd's purse weed controlling effect (activity level) (shepherd's purse): 10
- corn gromwell weed controlling effect (activity level) (corn gromwell): 10
- flixweed weed controlling effect (activity level) (flixweed): 10
- chickweed weed controlling effect (activity level) (chickweed): 10
- Wheat (activity level, crop damage) (wheat [4]; 2 g/mu, sprayed at 4 leaf stage): 0
- Wheat (activity level, crop damage) (wheat [4]; 4 g/mu, sprayed at 4 leaf stage): 0
- Wheat (activity level, crop damage) (wheat [4]; 8 g/mu, sprayed at 4 leaf stage): 0
- Wheat (activity level, crop damage) (wheat [4]; 16 g/mu, sprayed at 4 leaf stage): 1 (Level 1: below 5% growth control rate)
- Wheat (activity level, crop damage) (wheat [4]; 32 g/mu, sprayed at 4 leaf stage): 4 (Level 4: above 50% growth control rate)
- Wheat (activity level, crop damage) (wheat [4]; 250 g/ha of the active substance): 0
- Alopecurus japonicas weed controlling effect (activity level) (alopecurus japonicas; 1 g/mu): 8 (Level 8: above 90% growth control rate)
- Alopecurus japonicas weed controlling effect (activity level) (alopecurus japonicas; 2 g/mu): 10
- Alopecurus japonicas weed controlling effect (activity level) (alopecurus japonicas; 4 g/mu): 10
- Alopecurus japonicas weed controlling effect (activity level) (alopecurus japonicas; 8 g/mu): 10
- weed control effect, Green foxtail (level) (foxtail): 8 (Level 8: above 90% growth control rate)
- weed control effect, Indian mallow (level) (Indian mallow): 10
- weed control effect, Bidens bipinnata (level) (bidens bipinnata): 4 (Level 4: above 50% growth control rate)
- weed control effect, Crab grass (level) (crab grass): 7 (Level 7: above 80% growth control rate)
- weed control effect, Rorippa indica (level) (rorippa indica): 10
- weed control effect, Echinochloa (level) (echinochloa [2]): 6 (Level 6: above 70% growth control rate)
- effect on crop, Rice (level) (rice): 5 (Level 5: above 60% growth control rate)
- effect on crop, Corn (level) (corn): 3 (Level 3: above 20% growth control rate)
- effect on crop, Wheat (level) (wheat [3]): 1 (Level 1: below 5% growth control rate)
